Test results reported in patent US4666897A, “Inhibition of mammalian collagenolytic enzymes by tetracyclines” (Research Foundation of State University, priority 1983, dated 1987).

Key:
[1] = tested on: fetal rat bones (radii and ulnae) in organ culture; test: PTH-induced bone resorption in organ culture (45calcium release); type: cell-based
Description: The technique used to assess bone resorption is based on monitoring the release of radioactive calcium, previously incorporated by embryonic bones in vivo, during organ culture. Pregnant Sprague-Dawley rats were injected subcutaneously with 200 μCi of ^45 calcium chloride on the 18th day of gestation. The following day, the animals were killed, the fetuses removed, and the radii and ulnae dissected under aseptic conditions. […] The bones were then randomly distributed and each bone, either a radius or ulna, was incubated in 0.5 ml of culture media alone or in a media containing parathyroid hormone (PTH: human synthetic 1-34 peptide, Beckman Instruments, Inc., Palo Alto, California) added in a final concentration of 1.0 μg/ml; the experimental bones were incubated in the PTH containing medium to which was added different concentrations (0.2-300 μg/ml) of the antibiotics to be tested. The bones were cultured for 5 days, with the media being changed after day 2, and the incubation terminated. The bones were decalcified in 0.2 ml of 5% trichloroacetic acid and the ^45 calcium content of the residual bones and of the culture media was measured as described previously. (Werner and Raisz, Endocrinology, 90, 752 (1972 ) and Gomes, et. al., Calc. Tiss. Res., 19, 285 (1976)). The ^45 calcium released into the media was calculated as a percentage of the total radioactive calcium measured in the bones.

[2] = tested on: synovial tissue collagenolytic activity; test: Collagenolytic activity in extracts of synovial tissue from patients with rheumatoid arthritis; type: in vivo, human; parameters: Synovial Tissue Collagenolytic Activity (% C^14-collagen degraded) After Minocycline Treatment / % Reduction by Treatment: concentration or dose not given beside the values
Description: In each of three patients, the diseased joint tissue on one side was surgically removed for therapeutic reasons. The three patients were then administered minocycline orally for 10 days and the diseased joint (synovial) tissue on the opposite side was surgically removed (for therapeutic reasons) after the course of minocycline treatment was completed. The tissues were coded, stored frozen, and analyzed double blind to eliminate any bias in the development of the data. The tissues were dried, the lipid removed, and the collagenolytic activity in the diseased joint tissues extracted and concentrated. Aliquots of the extract from each diseased joint were incubated in vitro with radiolabelled collagen fibrils for 72 hours at 37° C. to assess collagen destructive (collagenolytic) enzyme activity.

[3] = tested on: gingival collagenolytic enzyme activity of diabetic rats; test: Collagenolytic enzyme activity in extracts of gingiva from diabetic rats given minocycline; type: in vivo, rat; details: for Gingival Collagenolytic Activity (% C^14-Collagen Degraded): diabetes + oral daily drug
Description: Rats were made diabetic chemically with the agent streptozotocin. Some of the diabetic rats (half were administered minocycline orally on a daily basis) were killed 15 days, or 28 days, or 56 days after inducing diabetes and the gingiva were dissected, the tissues were extracted, and the extracts partially purified by ammonium sulfate precipitation. The partially purified enzyme preparation from the gingiva of a group of non-diabetic (control) rats, and the diabetic rats, was incubated at 37° C. in vitro with radiolabeled collagen fibrils to assess collagenolytic ennzyme activity.

[4] = Table 3, PTH + 2 μg/ml minocycline + 100 μg/ml Pen.-Strep.
[5] = Table 3, PTH + 2 μg/ml minocycline + 300 μg/ml Pen.-Strep.
[6] = Table 3, PTH + 20 μg/ml minocycline + 100 μg/ml Pen.-Strep.

CN(C)c1ccc(O)c2c1C[C@H]1C[C@H]3[C@H](N(C)C)C(O)=C(C(N)=O)C(=O)[C@@]3(O)C(O)=C1C2=O [minocycline, Minocycline]
^45 Calcium in Fetal Bone Released into Media (%) after 2 days incubation ([1]; Table 3, PTH + 0.2 μg/ml): 42.6 ± 0.6% | ^45 Calcium in fetal bone Released into media (%) after 5 days incubation ([1]; Table 3, PTH + 0.2 μg/ml): 75.6 ± 1.0% | ^45 Calcium in Fetal Bone Released into Media (%) after 2 days incubation ([1]; Table 3, PTH + 2 μg/ml): 44.2 ± 2.1% | ^45 Calcium in fetal bone Released into media (%) after 5 days incubation ([1]; Table 3, PTH + 2 μg/ml): 74.7 ± 3.1% | ^45 Calcium in Fetal Bone Released into Media (%) after 2 days incubation [1, 4]: 42.9 ± 1.9% | ^45 Calcium in fetal bone Released into media (%) after 5 days incubation [1, 4]: 70.2 ± 3.7% | ^45 Calcium in Fetal Bone Released into Media (%) after 2 days incubation [1, 5]: 45.7 ± 2.5% | ^45 Calcium in fetal bone Released into media (%) after 5 days incubation [1, 5]: 71.8 ± 3.5% | ^45 Calcium in Fetal Bone Released into Media (%) after 2 days incubation ([1]; Table 3, PTH + 20 μg/ml): 22.5 ± 1.6% | ^45 Calcium in fetal bone Released into media (%) after 5 days incubation ([1]; Table 3, PTH + 20 μg/ml): 29.2 ± 1.8% | ^45 Calcium in Fetal Bone Released into Media (%) after 2 days incubation [1, 6]: 21.5 ± 1.5% | ^45 Calcium in fetal bone Released into media (%) after 5 days incubation [1, 6]: 31.9 ± 2.1% | ^45 Calcium in fetal bone Released into media (%) after 5 days incubation ([1]; Table 3, PTH + 20 μg/ml minocycline + 300 μg/ml Pen.-Strep.): 33.5 ± 1.3% | ^45 Calcium in Fetal Bone Released into Media (%) after 2 days incubation ([1]; Table 3, PTH + 60 μg/ml): 19.4 ± 0.9% | ^45 Calcium in fetal bone Released into media (%) after 5 days incubation ([1]; Table 3, PTH + 60 μg/ml): 24.5 ± 1.1% | ^45 Calcium in Fetal Bone Released into Media (%) after 2 days incubation ([1]; Table 3, PTH + 200 μg/ml): 17.6 ± 0.4% | ^45 Calcium in fetal bone Released into media (%) after 5 days incubation ([1]; Table 3, PTH + 200 μg/ml): 22.3 ± 0.5% | ^45 Calcium in Fetal Bone Released into Media (%) after 2 days incubation ([1]; Table 4, first column, PTH + 0.2 μg/ml): 54.5 ± 4.1% | ^45 Calcium in Fetal Bone Released into Media (%) after 2 days incubation ([1]; Table 4, first column, PTH + 2.0 μg/ml): 56.5 ± 2.6% | ^45 Calcium in Fetal Bone Released into Media (%) after 2 days incubation ([1]; Table 4, first column, PTH + 20 μg/ml): 40.7 ± 0.8% | ^45 Calcium in Fetal Bone Released into Media (%) after 2 days incubation ([1]; Table 4, first column, PTH + 200 μg/ml): 16.4 ± 1.1% | ^45 Calcium in Fetal Bone Released into Media (%) after 2 days incubation ([1]; Table 4, second column, PTH + 0.2 μg/ml): 95.1 ± 1.8% | ^45 Calcium in Fetal Bone Released into Media (%) after 2 days incubation ([1]; Table 4, second column, PTH + 2.0 μg/ml): 93.3 ± 2.6% | ^45 Calcium in Fetal Bone Released into Media (%) after 2 days incubation ([1]; Table 4, second column, PTH + 20 μg/ml): 50.1 ± 0.8% | ^45 Calcium in Fetal Bone Released into Media (%) after 2 days incubation ([1]; Table 4, second column, PTH + 200 μg/ml): 20.4 ± 1.5% | effect on PTH-enhanced bone resorption, in words ([1]; concentrations 0.2-300 μg/ml): inhibit ^45 calcium release in a dose responsive manner | % Reduction by Treatment ([2]; Patient #1): 81.8% | Synovial Tissue Collagenolytic Activity (% C^14-collagen degraded) After Minocycline Treatment ([2]; Patient #1, oral for 10 days, before treatment 43.0): 7.8% | % Reduction by Treatment ([2]; Patient #2): 68.8% | Synovial Tissue Collagenolytic Activity (% C^14-collagen degraded) After Minocycline Treatment ([2]; Patient #2, oral for 10 days, before treatment 41.0): 12.8% | % Reduction by Treatment ([2]; Patient #3): did not reduce collagenolytic activity much further | Synovial Tissue Collagenolytic Activity (% C^14-collagen degraded) After Minocycline Treatment ([2]; Patient #3, oral for 10 days, before treatment 18.6): 18.0% | % Reduction by Treatment ([2]; Patient #3, listed as Minocycline): 3.3% | reduction of synovial collagenolytic enzyme activity ([2]; patients #1 and 2 (high level of activity)): 69-82% | % Inhibition of Collagenolytic Activity by Minocycline ([3]; 15 days): 42.5% | % Inhibition of Collagenolytic Activity by Minocycline ([3]; 28 days): 72.7% | % Inhibition of Collagenolytic Activity by Minocycline ([3]; 56 days): 77.2% | Gingival Collagenolytic Activity (% C^14-Collagen Degraded) ([3]; 15 days, untreated diabetic 50.4, control 9.1): 29.0% | Gingival Collagenolytic Activity (% C^14-Collagen Degraded) ([3]; 28 days, untreated diabetic 63.0, control 9.1): 17.2% | Gingival Collagenolytic Activity (% C^14-Collagen Degraded) ([3]; 56 days, untreated diabetic 47.8, control 9.1): 10.9%
